Measurements published in ChEMBL document CHEMBL1201862, “PubChem BioAssay data set” (2004).
The source made the active and inactive calls.

Experiments:
[1] = biological target: T1, Calpain-2 catalytic subunit (Sus scrofa, UniProt P43367); experiment: m-calpain protease blockers, concentration series – biochemical, fluorogenic peptide substrate, dose response (AID 1420); format: functional
T1 sequence (P43367 whole entry): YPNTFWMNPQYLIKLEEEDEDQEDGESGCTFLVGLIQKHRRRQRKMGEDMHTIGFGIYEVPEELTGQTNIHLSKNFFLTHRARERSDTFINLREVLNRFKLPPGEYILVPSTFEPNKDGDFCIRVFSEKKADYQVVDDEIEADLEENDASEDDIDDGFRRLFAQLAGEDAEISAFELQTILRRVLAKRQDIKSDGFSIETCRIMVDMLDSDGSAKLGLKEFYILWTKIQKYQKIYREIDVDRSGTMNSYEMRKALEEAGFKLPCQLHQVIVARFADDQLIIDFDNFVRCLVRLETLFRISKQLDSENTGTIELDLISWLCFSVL

[2] = biological target: T2, Carboxy-terminal domain RNA polymerase II polypeptide A small phosphatase 1 (Homo sapiens, UniProt Q9GZU7); experiment: CTDSP1 inhibitors, concentration-response, biochemical, absorbance readout, ultra-high-throughput screen actives (AID 540297); format: functional
T2 sequence (Q9GZU7 whole entry): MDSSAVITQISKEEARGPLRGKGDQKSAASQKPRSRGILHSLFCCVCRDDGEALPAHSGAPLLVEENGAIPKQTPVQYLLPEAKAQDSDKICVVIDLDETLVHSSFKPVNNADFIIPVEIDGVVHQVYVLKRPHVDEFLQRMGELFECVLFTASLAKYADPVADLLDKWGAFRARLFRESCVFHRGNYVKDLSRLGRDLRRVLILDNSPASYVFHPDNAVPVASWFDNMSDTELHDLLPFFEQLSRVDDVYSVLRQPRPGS

[3] = viability of PTEN-deleted HCT116 cells – cell-based, HCT116 PTEN knockout, dose response (AID 1047); format: functional;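 also: HCT116 colon tumor cells with PTEN knocked out; cells exposed to compound for 60 hours before readout; potency for loss of cell viability measured by luminescence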
[4] = viability of HCT116 lacking mutant beta-catenin – cell-based, human colon tumor, dose response (AID 1045); format: functional;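 also: HCT116 colon tumor cells with beta catenin knocked out; cells exposed to compound for 60 hours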
[5] = test system: Streptococcus sp. 'group A'; experiment: Streptococcus pyogenes SK(-)GAS viability under kanamycin – luminescence, BacTiterGlo, confirmation, counter-screen for streptokinase expression inhibitor project, dose response (AID 1900); format: functional, organism-based
Streptococcus = experiment: GAS UMAA2166 growth inhibition – luminescence, BacTiterGlo, counter-screen for streptokinase expression inhibitor project, dose response (AID 1915); format: functional, organism-based;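 also: potency for reduction of bacterial viability or growth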
cells [6] = format: functional
[7] = reduction of Shn3 3'UTR-driven luciferase in osteoblasts – cell-based, Clone20 osteoblasts, firefly luciferase, cherry-picked, dose response (AID 624132); format: functional;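 also: firefly luciferase luminescence from reporter carrying the Shn3 3'UTR in osteoblasts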
[8] = non-specific 3'UTR reporter inhibition in Clone20-Shn3RL – cell-based, Renilla luciferase, cherry-picked, counter-screen for Shn3 inhibitor project, dose response (AID 624133); format: functional
[9] = biological target: Voltage-dependent T-type calcium channel subunit alpha-1H (Homo sapiens, UniProt O95180); format: functional;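 also: channel activity triggered by adding a high calcium stimulation buffer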
cells [10] = format: functional, cell-based
cells [11] = format: functional, cell-based; remark: listed apart in the source
[12] = viability of uninfected HEp-2 cells – cell-based, HTS, cytotoxicity control for RSV inhibitor project, dose response (AID 2410); format: functional; settings: human respiratory syncytial virus
[13] = Luminescence Cell-Based Dose Retest to Confirm Inhibitors of Cancer Stem Cells. [Related pubchem assays (depositor defined):AID2717, AID2721]; format: functional; settings: Homo sapiens
Cytochrome P450 2C19 = Cytochrome P450 2C19 (Homo sapiens, UniProt P33261); experiment: Cytochrome panel assay with activity outcomes. Panel member name: p450-cyp2c19 Compounds with AC50 equal or less than 10 uM are considered active; format: functional; settings: read-out: AC50
Cytochrome P450 3A4 = Cytochrome P450 3A4 (Homo sapiens, UniProt P08684);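 also: CYP3A4 tested as one member of a cytochrome P450 panel screen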
Cytochrome P450 3A4, sequence (P08684 whole entry): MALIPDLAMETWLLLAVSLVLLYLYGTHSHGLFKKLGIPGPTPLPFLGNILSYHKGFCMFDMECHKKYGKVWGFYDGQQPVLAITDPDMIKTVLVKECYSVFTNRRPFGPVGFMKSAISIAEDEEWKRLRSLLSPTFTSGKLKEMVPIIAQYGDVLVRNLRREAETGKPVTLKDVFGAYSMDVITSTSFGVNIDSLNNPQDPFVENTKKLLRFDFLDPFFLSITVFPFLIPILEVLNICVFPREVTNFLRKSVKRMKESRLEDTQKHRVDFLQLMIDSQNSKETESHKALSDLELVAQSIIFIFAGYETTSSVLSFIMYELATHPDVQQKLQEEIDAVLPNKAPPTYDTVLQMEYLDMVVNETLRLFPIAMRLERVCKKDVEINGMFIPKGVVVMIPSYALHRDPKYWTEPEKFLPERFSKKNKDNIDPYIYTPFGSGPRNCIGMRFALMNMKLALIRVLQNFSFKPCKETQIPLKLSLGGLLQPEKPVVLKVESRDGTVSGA

Voltage-dependent T-type calcium channel subunit alpha-1H, sequence (O95180 whole entry): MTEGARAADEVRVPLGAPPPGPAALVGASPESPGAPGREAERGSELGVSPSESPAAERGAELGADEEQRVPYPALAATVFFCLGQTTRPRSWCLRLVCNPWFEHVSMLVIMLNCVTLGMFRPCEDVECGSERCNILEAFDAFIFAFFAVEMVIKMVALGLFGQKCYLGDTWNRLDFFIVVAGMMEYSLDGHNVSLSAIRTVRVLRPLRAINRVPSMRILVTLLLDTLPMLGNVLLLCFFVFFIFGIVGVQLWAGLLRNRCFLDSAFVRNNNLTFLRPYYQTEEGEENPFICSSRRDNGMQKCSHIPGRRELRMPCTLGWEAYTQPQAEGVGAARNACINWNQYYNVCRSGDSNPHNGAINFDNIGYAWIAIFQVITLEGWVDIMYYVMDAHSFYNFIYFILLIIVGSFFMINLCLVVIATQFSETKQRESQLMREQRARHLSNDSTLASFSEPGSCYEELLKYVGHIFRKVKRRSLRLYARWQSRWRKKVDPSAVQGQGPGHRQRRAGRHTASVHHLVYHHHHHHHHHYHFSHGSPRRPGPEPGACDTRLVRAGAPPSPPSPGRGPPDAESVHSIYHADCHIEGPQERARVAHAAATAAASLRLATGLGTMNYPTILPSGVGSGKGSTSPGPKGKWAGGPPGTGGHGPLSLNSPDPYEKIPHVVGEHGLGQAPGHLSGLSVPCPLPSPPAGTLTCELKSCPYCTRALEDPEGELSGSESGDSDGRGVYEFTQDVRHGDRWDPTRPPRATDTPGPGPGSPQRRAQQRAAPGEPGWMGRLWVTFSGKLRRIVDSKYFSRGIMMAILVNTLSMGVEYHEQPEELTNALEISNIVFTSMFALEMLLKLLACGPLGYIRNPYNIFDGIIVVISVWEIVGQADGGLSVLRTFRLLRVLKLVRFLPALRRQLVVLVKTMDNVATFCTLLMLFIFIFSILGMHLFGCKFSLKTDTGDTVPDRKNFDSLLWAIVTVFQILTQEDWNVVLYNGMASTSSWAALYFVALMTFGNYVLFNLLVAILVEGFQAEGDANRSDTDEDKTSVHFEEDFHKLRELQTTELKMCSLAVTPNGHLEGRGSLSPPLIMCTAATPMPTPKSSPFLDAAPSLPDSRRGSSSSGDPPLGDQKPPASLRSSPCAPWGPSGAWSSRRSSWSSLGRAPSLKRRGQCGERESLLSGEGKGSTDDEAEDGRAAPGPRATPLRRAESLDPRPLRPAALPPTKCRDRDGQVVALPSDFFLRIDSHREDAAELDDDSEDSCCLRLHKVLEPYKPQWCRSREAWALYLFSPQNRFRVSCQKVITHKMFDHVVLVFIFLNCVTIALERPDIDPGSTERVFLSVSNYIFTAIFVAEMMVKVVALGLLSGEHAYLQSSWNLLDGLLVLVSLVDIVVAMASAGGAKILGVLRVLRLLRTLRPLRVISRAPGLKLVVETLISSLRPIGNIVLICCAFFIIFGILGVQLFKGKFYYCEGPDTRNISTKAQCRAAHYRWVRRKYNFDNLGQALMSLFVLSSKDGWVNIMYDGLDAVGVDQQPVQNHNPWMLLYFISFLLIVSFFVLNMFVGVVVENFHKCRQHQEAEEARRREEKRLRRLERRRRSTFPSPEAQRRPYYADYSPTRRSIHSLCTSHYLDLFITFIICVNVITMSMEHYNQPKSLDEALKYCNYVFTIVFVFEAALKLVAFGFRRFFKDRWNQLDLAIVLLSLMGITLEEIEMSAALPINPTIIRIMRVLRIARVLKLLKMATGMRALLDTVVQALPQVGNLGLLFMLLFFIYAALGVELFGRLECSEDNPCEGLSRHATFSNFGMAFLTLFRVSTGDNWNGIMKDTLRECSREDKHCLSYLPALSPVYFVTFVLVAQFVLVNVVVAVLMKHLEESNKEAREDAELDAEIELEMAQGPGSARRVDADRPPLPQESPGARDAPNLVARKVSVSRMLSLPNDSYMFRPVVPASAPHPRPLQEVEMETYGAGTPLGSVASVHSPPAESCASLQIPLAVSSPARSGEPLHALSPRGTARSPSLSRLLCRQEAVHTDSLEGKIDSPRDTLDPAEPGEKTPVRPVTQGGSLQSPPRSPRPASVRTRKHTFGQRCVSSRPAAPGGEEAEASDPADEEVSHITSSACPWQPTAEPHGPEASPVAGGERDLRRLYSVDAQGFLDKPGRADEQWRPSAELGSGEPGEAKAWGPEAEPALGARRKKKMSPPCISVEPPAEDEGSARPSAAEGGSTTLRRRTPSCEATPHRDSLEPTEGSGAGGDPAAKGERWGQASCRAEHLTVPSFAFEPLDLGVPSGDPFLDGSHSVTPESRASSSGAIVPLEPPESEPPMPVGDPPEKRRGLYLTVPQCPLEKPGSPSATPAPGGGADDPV
Cytochrome P450 2C19, sequence (P33261 whole entry): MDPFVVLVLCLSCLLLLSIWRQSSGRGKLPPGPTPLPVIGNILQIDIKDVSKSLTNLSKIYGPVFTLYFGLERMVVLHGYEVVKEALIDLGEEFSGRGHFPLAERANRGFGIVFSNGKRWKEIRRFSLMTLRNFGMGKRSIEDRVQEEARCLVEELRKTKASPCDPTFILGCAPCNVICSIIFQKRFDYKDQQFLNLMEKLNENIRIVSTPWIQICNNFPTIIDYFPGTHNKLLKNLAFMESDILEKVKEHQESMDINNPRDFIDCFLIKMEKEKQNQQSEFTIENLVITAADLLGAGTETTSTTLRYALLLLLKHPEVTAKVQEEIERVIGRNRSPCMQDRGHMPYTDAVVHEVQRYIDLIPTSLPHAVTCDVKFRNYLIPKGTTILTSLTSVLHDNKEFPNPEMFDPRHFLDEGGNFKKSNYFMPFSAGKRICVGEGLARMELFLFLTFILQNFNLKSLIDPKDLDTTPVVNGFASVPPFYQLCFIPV

COc1ccccc1-n1c([S-])c(C(=O)Nc2ccccc2C(F)(F)F)[n+]2ccc(C(=O)NCCO)cc12
IC50 [1]: 6.82 µM (not active)

O=S(=O)(c1ccc2c(c1)CCCN2)N1CCCC2CCCCC21 (stereo not given)
IC50 [1]: 12.4 µM (not active)

O=C1C=C(O)c2cccc(O)c2C1=O
IC50 [2]: 44.5 µM (active)

COC(=O)c1c(NC(=O)c2ccc(S(=O)(=O)N3CCOCC3)cc2)sc2c1CCN(C)C2
EC50 [3]: 23.8 µM (active)
EC50 [4]: 14.9 µM (active)

O=C1N=C(Nc2ccccn2)SC1Cc1ccc(Cl)cc1 (stereo not given)
EC50 [5]: 83.8 µM (active)
EC50 (Streptococcus): > 150 µM (not active)
IC50 (cells [6]): > 25 µM (active)

Cc1cc(NC(=O)CSc2sc3c(O)cc(=O)[nH]c3c2C#N)ccc1Br
IC50 [2]: 3.74 µM (active)

O=C1c2ccccc2C(=O)N1CCCCSc1nnnn1-c1ccccc1
IC50 [1]: 9.41 µM (not active)

O=C1CC(c2ccccc2)CC(=O)C1=CNc1cccc(Cl)c1 (stereo not given)
AC50 [7]: 4.94 µM (active)
AC50 [8]: 19.8 µM (active)

CCC(=O)n1nc(NCc2ccccc2OC)nc1NCc1ccccc1OC
EC50 [9]: 1.68 µM (active)

COc1ccc(OC)c2sc(N3CCN(C(=O)c4ccc5ncsc5c4)CC3)nc12
EC50 (cells [10]): > 350 µM (not active)
EC50 (cells [11]): > 350 µM (not active)

CC(C)=CC(=O)OCC(=O)NC(=O)NC(C)(C)C
IC50 [1]: > 50 µM (not active)

CCNc1nc(NCC)n2c(SC(C(=O)Nc3cc(Cl)cc(Cl)c3)c3ccccc3)nnc2n1 (stereo not given)
CC50 [12]: 6.19 µM (active)
EC50 [3]: 5.99 µM (active)
EC50 [4]: 6.35 µM (active)
AC50 [13]: 1.59 µM (active)

CCOc1ccc2nc(Cl)c(C3CC(c4ccccc4)=NN3C(=O)c3cccs3)cc2c1 (stereo not given)
EC50 [3]: 4.07 µM (active)
EC50 [4]: 3.9 µM (active)

CCCCOc1ccc(C(=O)NCC(=O)OC2CCOC2=O)cc1 (stereo not given)
EC50 (cells [10]): > 350 µM (not active)
EC50 (cells [11]): > 350 µM (not active)

COCc1ccc(C(=O)N2CCCC(CCC(=O)NCc3ccccc3F)C2)o1 (stereo not given)
EC50 (cells [10]): > 350 µM (not active)
EC50 (cells [11]): > 350 µM (not active)

c1ccc(-c2ccccc2-c2nc(-c3cccnc3)no2)cc1
EC50 [9]: 8.07 µM (active)

CC(C)Sc1oc(-c2ccco2)nc1S(=O)(=O)c1ccc(F)cc1
EC50 [9]: 7.9 µM (active)

CCCOC(=O)c1ccc(NC(=O)c2ccccc2OC)cc1
IC50 (cells [6]): 11.3 µM (active)

Cc1cccc(OCCCSc2nc3ccccc3[nH]2)c1
EC50 [9]: 3.47 µM (active)

COc1cccc(C2=CC(c3cccs3)n3nnnc3N2)c1 (stereo not given)
IC50 [1]: 1.42 µM (not active)

COc1ccc(CC(=O)Nc2ccc(-c3noc(-c4cccc(OC)c4)n3)cc2)cc1
EC50 [3]: 14.9 µM (active)
EC50 [4]: 11.8 µM (active)
AC50 (Cytochrome P450 2C19): 4.47 µM (inconclusive)
AC50 (Cytochrome P450 3A4): 1 µM (inconclusive)
